The values below are quoted from earlier work in paper PMC8796384, “Plasma protein binding prediction focusing on residue-level features and circularity of cyclic peptides by deep learning” (Bioinformatics, 2021).

Read-outs that look alike come from different tables or passages of the source.

Data set [1] deals with plasma proteins. To be noted: whole-peptide descriptor model trained on small molecules; ref Tajimi et al. (2018).
The subject of data set [2] is plasma proteins.
From the text: The external test (DrugBank) data contained some structurally similar pairs.
Where [3] appears, read: experimental %PPB, below 50% rounded to 50%, above 95% rounded to 95%, DrugBank dataset collected by Tajimi et al. (2018), ref Wishart et al., 2018.

As for daptomycin, the “predicted %PPB value by Tajimi” value in the data set with plasma proteins [1] is recorded as 49%.

Consider Micafungin, for which the “%PPB50-95” value in the data set with plasma proteins [2] (setting [3]) is on record as 95%.

Lanreotide: in the data set on plasma proteins [2] (setting [3]), the “%PPB50-95” value is listed as 81%.

Take Polymyxin B: the “%PPB50-95” value in the data set on plasma proteins [2] is on record as 85.5%.

Take Pasireotide: the “%PPB50-95” value in the data set with plasma proteins [2] is given as 88%.

As for Anidulafungin, the “%PPB50-95” value with plasma proteins [2] (setting [3]) is reported as 84%.

Turning to Caspofungin, the “%PPB50-95” value in the data set on plasma proteins [2] (setting [3]) was 95%.
